Residues, ends and D or L forms follow the SMILES beside them.
Legend:
[1] = tested on: Human immunodeficiency virus 1; test: Antiviral activity against HIV1 NL4-3 harboring gp41 D36G mutant infected in human HeLa cells expressing CD4-LTR-beta-gal assessed as inhibition of viral replication after 48 hrs by MAGI assay; format: functional, organism-based
[2] = tested on: Human immunodeficiency virus 1; test: Binding affinity to HIV1 His-tagged N-terminal heptad repeat of envelope glycoprotein gp41 assessed as recovery of N54-drug complex after 2 hrs by LC-MS analysis; set-up: concentration or dose not given beside the values
[3] = tested on: Human immunodeficiency virus 1; test: Thermal stability of HIV1 envelope glycoprotein gp41 His-tagged N-terminal heptad repeat N54-drug complex assessed as thermal unfolding transition state by measuring molar ellipticity at 4 to 90 degC by circular dichroic spectra analysis

CC[C@H](C)[C@H](NC(=O)[C@H](CC(C)C)NC(=O)[C@H](CCC(=O)O)NC(=O)[C@H](CCC(=O)O)NC(=O)[C@@H](NC(=O)[C@H](CC(C)C)NC(=O)[C@H](CO)NC(=O)[C@@H](NC(=O)[C@H](Cc1ccc(O)cc1)NC(C)=O)[C@@H](C)O)[C@@H](C)CC)C(=O)N[C@@H](CCCCN)C(=O)N[C@@H](CCCCN)C(=O)N[C@@H](CO)C(=O)N[C@@H](CCC(=O)O)C(=O)N[C@@H](CCC(=O)O)C(=O)N[C@@H](CC(C)C)C(=O)N[C@@H](CCC(N)=O)C(=O)N[C@@H](CCCCN)C(=O)N[C@@H](CCCCN)C(=O)N[C@@H](CC(N)=O)C(=O)N[C@@H](CCC(=O)O)C(=O)N[C@@H](CCC(=O)O)C(=O)N[C@@H](CCC(=O)O)C(=O)N[C@@H](CC(C)C)C(=O)N[C@@H](CCCCN)C(=O)N[C@@H](CCCCN)C(=O)N[C@@H](CC(C)C)C(=O)N[C@@H](CCC(=O)O)C(=O)N[C@@H](CCC(=O)O)C(=O)N[C@@H](Cc1c[nH]c2ccccc12)C(=O)N[C@@H](C)C(=O)N[C@@H](CCCCN)C(=O)N[C@@H](CCCCN)C(=O)N[C@@H](Cc1c[nH]c2ccccc12)C(=O)N[C@@H](CC(N)=O)C(=O)N[C@@H](Cc1c[nH]c2ccccc12)C(=O)N[C@@H](Cc1ccccc1)C(N)=O (Ac-YTSLIEELIKKSEELQKKNEEELKKLEEWAKKWNWF-NH2)
EC50 [1]: 0.5 nM
Activity [2]: 10.4%
Tm [3]: 77.4 °C

CC[C@H](C)[C@H](NC(=O)[C@H](CC(C)C)NC(=O)[C@H](CCC(=O)O)NC(=O)[C@H](CCC(=O)O)NC(=O)[C@@H](NC(=O)[C@H](CC(C)C)NC(=O)[C@H](CO)NC(=O)[C@@H](NC(=O)[C@H](Cc1ccc(O)cc1)NC(C)=O)[C@@H](C)O)[C@@H](C)CC)C(=O)N[C@@H](CCCCN)C(=O)N[C@@H](CCCCN)C(=O)N[C@@H](CO)C(=O)N[C@@H](CCC(=O)O)C(=O)N[C@@H](CCC(=O)O)C(=O)N[C@@H](CCC(=O)O)C(=O)N[C@@H](CCC(N)=O)C(=O)N[C@@H](CCCCN)C(=O)N[C@@H](CCCCN)C(=O)N[C@@H](CC(N)=O)C(=O)N[C@@H](CCC(=O)O)C(=O)N[C@@H](CCC(=O)O)C(=O)N[C@@H](CCC(=O)O)C(=O)N[C@@H](CC(C)C)C(=O)N[C@@H](CCCCN)C(=O)N[C@@H](CCCCN)C(=O)N[C@@H](CC(C)C)C(=O)N[C@@H](CCC(=O)O)C(=O)N[C@@H](CCC(=O)O)C(=O)N[C@@H](Cc1c[nH]c2ccccc12)C(=O)N[C@@H](C)C(=O)N[C@@H](CCCCN)C(=O)N[C@@H](CCCCN)C(=O)N[C@@H](Cc1c[nH]c2ccccc12)C(=O)N[C@@H](CC(N)=O)C(=O)N[C@@H](Cc1c[nH]c2ccccc12)C(=O)N[C@@H](Cc1ccccc1)C(N)=O (Ac-YTSLIEELIKKSEEEQKKNEEELKKLEEWAKKWNWF-NH2)
EC50 [1]: 3.8 nM
Activity [2]: 8.2%
Tm [3]: 71.8 °C

CC[C@H](C)[C@H](NC(=O)[C@H](CC(C)C)NC(=O)[C@H](CCC(=O)O)NC(=O)[C@H](CCC(=O)O)NC(=O)[C@@H](NC(=O)[C@H](CC(C)C)NC(=O)[C@H](CO)NC(=O)[C@@H](NC(=O)[C@H](Cc1ccc(O)cc1)NC(C)=O)[C@@H](C)O)[C@@H](C)CC)C(=O)N[C@@H](CCCCN)C(=O)N[C@@H](CCCCN)C(=O)N[C@@H](CC(=O)O)C(=O)N[C@@H](CCC(=O)O)C(=O)N[C@@H](CCC(=O)O)C(=O)N[C@@H](CCC(N)=O)C(=O)N[C@@H](CCC(N)=O)C(=O)N[C@@H](CCCCN)C(=O)N[C@@H](CCCCN)C(=O)N[C@@H](CC(N)=O)C(=O)N[C@@H](CCC(=O)O)C(=O)N[C@@H](CCC(=O)O)C(=O)N[C@@H](CCC(=O)O)C(=O)N[C@@H](CC(C)C)C(=O)N[C@@H](CCCCN)C(=O)N[C@@H](CCCCN)C(=O)N[C@@H](CC(C)C)C(=O)N[C@@H](CCC(=O)O)C(=O)N[C@@H](CCC(=O)O)C(=O)N[C@@H](Cc1c[nH]c2ccccc12)C(=O)N[C@@H](C)C(=O)N[C@@H](CCCCN)C(=O)N[C@@H](CCCCN)C(=O)N[C@@H](Cc1c[nH]c2ccccc12)C(=O)N[C@@H](CC(N)=O)C(=O)N[C@@H](Cc1c[nH]c2ccccc12)C(=O)N[C@@H](Cc1ccccc1)C(N)=O (Ac-YTSLIEELIKKDEEQQKKNEEELKKLEEWAKKWNWF-NH2)
EC50 [1]: 330 nM
Activity [2]: 1.5%
Tm [3]: 56.5 °C
